Data set [1] deals with human ether-a-go-go related gene (hERG) channel (Homo sapiens (Human), UniProt Q12809). Description: hERG test (FluxOR II potassium channel assay, FLIPR). The class given is cell-based. The conditions noted are these: CHO cells expressing hERG channel, thallium flux fluorescence, 10 minutes. On the procedure: Test Example 3: hERG Test
For the purpose of evaluating risk of an electrocardiogram QT interval prolongation of the compound of the present invention, effects of the compound are studied by evaluating the activity of potassium channel using CHO cells expressing human ether-a-go-go related gene (hERG) channel.
Evaluation is performed using a FluxORII Green Potassium IonCgannel Assay kit
(Invitrogen: Molecular Probes).
Cells are seeded in a 384-assay plate (8000 cells/well/40 μL) and incubated (37° C., […] overnight. After replacing the medium with a Wash buffer (1×HBSS, 20 mM HEPES) with a microplate washer, a fluorescent indicator is added to the medium and allowed to incubate (37° C., 5% CO2) for 1 hour for incorporation of the fluorescent indicator into cells.
A cell plate is placed on a cell-based kinetic assay system FLIPR (Molecular Devices, LLC.), and the compound is added to the cells so as to have a desired concentration and reacted for 10 minutes. When a mixed solution of potassium and thallium as a stimulator is added thereto, the potassium channel is opened, and thallium that flowed into the cells binds to the fluorescent indicator, so that the intracellular fluorescence signal increases, and the potassium channel current is detected as a fluorescence signal. For the inhibition rate at each concentration, the signal intensity when E-4031 is added to cells at a final concentration of 10.3 μmol/L is defined as an inhibition rate of 100%, and the signal intensity when DMSO is added to cells at a final concentration of 0.5% is defined as an inhibition rate of 0%. Then, the inhibition rate is calculated from the signal intensity at each concentration. IC50 is calculated from the inhibition rate at each concentration.
A general note: hERG is a cardiac potassium channel; its block is linked to QT prolongation.

A further data set has as its target CYP3A4 (Homo sapiens (Human), UniProt P08684). The experiment in a line: CYP3A4 (MDZ) MBI test. The conditions noted are these: pooled human liver microsomes, midazolam 1-hydroxylation, pre-reaction 0 or 30 minutes. The class given is in vitro ADME. How it is done:
Test Example 8: CYP3A4 (MDZ) MBI Test
This test is a test to evaluate mechanism based inhibition (MBI) potency from enhancement of CYP3A4 inhibition of the compound of the present invention by a metabolism reaction. CYP3A4 inhibition is evaluated using pooled human liver microsomes by 1-hydroxylation reaction of midazolam (MDZ) as a marker reaction.
The reaction conditions are as follows: substrate, 10 μmol/L MDZ; pre-reaction time, 0 or 30 minutes; reaction time, 2 minutes; reaction temperature, 37° C.; pooled human liver microsomes, at pre-reaction 0.5 mg/mL, at reaction 0.05 mg/mL (at 10-fold dilution); concentrations of the compound of the present invention, 0.83, 5, 10, 20 μmol/L (four points).
Pooled human liver microsomes and a solution of the compound of the present invention in K-Pi buffer (pH 7.4) as a pre-reaction solution are added to a 96-well plate at the composition of the pre-reaction. A part of pre-reaction solution is transferred to another 96-well plate, and 1/10 diluted by K-Pi buffer containing a substrate. NADPH as a co-factor is added to initiate a reaction as a marker reaction (without preincubation). After a predetermined time of a reaction, methanol/acetonitrile=1/1 (V/V) solution is added to stop the reaction. In addition, NADPH is added to a remaining pre-reaction solution to initiate a pre-reaction (with preincubation). After a predetermined time of a pre-reaction, a part is transferred to another plate, and 1/10 diluted by K-Pi buffer containing a substrate to initiate a reaction as a marker reaction. After a predetermined time of a reaction, methanol/acetonitrile=1/1 (V/V) solution is added to stop the reaction. Each plate where the marker reaction has been performed is centrifuged at 3000 rpm for 15 minutes. Then, midazolam 1-hydroxide in the centrifuged supernatant is quantified by LC/MS/MS.
Only DMSO which is a solvent dissolving the compound of the present invention added to a reaction system is adopted as a control (100%). Remaining activity (%) is calculated at each concentration of the compound of the present invention added. IC is calculated by reverse-presumption by a logistic model using a concentration and an inhibition rate. Shifted IC value is calculated as “IC of preincubation at 0 min/IC of preincubation at 30 min”. When a shifted IC is 1.5 or more, this is defined as positive. When a shifted IC is 1.0 or less, this is defined as negative.

human ether-a-go-go related gene (hERG) channel, sequence (Q12809 whole entry): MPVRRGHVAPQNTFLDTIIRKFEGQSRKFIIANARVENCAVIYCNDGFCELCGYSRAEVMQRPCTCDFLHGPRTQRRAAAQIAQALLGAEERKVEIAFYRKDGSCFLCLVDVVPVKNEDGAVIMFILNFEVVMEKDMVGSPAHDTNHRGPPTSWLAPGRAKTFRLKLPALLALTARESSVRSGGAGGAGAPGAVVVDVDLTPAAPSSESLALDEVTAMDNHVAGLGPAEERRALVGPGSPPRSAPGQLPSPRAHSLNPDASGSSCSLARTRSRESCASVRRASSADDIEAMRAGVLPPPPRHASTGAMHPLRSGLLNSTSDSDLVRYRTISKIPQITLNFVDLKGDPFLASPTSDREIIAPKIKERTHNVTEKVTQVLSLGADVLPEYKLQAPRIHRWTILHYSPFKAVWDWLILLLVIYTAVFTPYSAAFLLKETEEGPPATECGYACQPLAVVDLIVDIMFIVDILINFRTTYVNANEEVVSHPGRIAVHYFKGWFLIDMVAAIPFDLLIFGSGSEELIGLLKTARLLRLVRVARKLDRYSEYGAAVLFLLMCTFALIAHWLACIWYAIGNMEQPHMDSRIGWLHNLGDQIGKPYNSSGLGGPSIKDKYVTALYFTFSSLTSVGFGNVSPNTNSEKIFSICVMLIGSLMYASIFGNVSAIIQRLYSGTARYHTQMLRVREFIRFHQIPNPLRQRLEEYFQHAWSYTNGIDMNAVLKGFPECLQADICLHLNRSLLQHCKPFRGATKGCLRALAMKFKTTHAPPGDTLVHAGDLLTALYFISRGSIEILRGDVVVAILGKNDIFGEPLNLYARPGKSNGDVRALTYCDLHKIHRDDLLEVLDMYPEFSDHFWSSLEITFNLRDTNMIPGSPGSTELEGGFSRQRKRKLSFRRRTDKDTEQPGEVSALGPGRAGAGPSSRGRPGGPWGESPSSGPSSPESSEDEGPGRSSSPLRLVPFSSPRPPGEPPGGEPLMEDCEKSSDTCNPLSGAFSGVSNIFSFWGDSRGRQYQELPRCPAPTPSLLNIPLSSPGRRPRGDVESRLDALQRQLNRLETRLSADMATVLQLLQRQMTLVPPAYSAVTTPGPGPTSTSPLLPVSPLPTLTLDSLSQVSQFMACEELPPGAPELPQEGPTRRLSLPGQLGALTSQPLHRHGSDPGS
CYP3A4, sequence (P08684 whole entry): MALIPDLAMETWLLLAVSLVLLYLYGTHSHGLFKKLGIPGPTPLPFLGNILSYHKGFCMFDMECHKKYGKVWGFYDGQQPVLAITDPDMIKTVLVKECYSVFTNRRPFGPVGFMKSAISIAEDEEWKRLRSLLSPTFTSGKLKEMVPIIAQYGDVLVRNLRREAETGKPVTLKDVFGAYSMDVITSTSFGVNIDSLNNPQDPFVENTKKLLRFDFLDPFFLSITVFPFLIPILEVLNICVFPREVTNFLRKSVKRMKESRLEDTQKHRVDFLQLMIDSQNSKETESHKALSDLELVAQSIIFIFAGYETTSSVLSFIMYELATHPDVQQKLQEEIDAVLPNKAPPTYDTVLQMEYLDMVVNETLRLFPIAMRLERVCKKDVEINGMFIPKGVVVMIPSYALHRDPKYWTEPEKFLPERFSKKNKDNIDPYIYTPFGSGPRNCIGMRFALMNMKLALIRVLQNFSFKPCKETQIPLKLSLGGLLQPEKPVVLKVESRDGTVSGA

As to `Cc1nc(CN(Cc2ccc(OCC(C)C)cc2F)C2=NOC3(CCN(C)CC3)N2)co1` [Compound I-128], the IC50 (commonly the point on the concentration scale where inhibition reaches its midpoint) in data set [1] is greater than 52 µM. Besides, on CYP3A4, the “CYP3A4 (MDZ) MBI (shifted IC)” value is on record as “Negative (When a shifted IC is 1.0 or less, this is defined as negative)”.

With `CCCCOc1ccc(CN(Cc2coc(C)n2)C2=NOC3(CCN(C)CC3)N2)cc1F` [Compound I-115], in data set [1], the IC50 was greater than 52 µM. For the same compound, the “CYP3A4 (MDZ) MBI (shifted IC)” value at CYP3A4 was “Negative (When a shifted IC is 1.0 or less, this is defined as negative)”.

For `CCCCOc1ccc(CN(Cc2coc(CF)n2)C2=NOC3(CCN(C)CC3)N2)cc1` [Compound I-105], the IC50 in data set [1] was determined as 17.9 µM. The “CYP3A4 (MDZ) MBI (shifted IC)” value on CYP3A4 was “Negative (When a shifted IC is 1.0 or less, this is defined as negative)”.

The compound `CC(C)COc1ccc(CN(Cc2coc(CF)n2)C2=NOC3(CCN(C)CC3)N2)cc1` [Compound I-067] gave an IC50 in data set [1] of 16.3 µM. Besides, on CYP3A4, the “CYP3A4 (MDZ) MBI (shifted IC)” value is reported as “Negative (When a shifted IC is 1.0 or less, this is defined as negative)”.

For the compound `CCCCOc1ccc(CN(Cc2cnn(C)n2)C2=NOC3(CCN(C)CC3)N2)cc1` [Compound I-113], the IC50 in data set [1] was greater than 52 µM. Moreover, the “CYP3A4 (MDZ) MBI (shifted IC)” value on CYP3A4 was “Negative (When a shifted IC is 1.0 or less, this is defined as negative)”.

In data set [1], `Cc1nc(CN(Cc2ccc(OCC(F)(F)C(F)(F)F)cc2F)C2=NOC3(CCN(C)CC3)N2)co1` [Compound I-104] had an IC50 of 20.6 µM. Moreover, the “CYP3A4 (MDZ) MBI (shifted IC)” value at CYP3A4 is listed as “Negative (When a shifted IC is 1.0 or less, this is defined as negative)”.

In data set [1], `CCCCOc1ccc(CN(Cc2coc(C)n2)C2=NOC3(CCN(C)CC3)N2)c(F)c1` [Compound I-114] returned an IC50 greater than 52 µM. Moreover, on CYP3A4, the “CYP3A4 (MDZ) MBI (shifted IC)” value was “Negative (When a shifted IC is 1.0 or less, this is defined as negative)”.

Consider `CCCCOc1ccc(CN(Cc2coc(C)n2)C2=NOC3(CCN(C)CC3)N2)cc1` [Compound I-080], for which the IC50 in data set [1] is greater than 52 µM. Moreover, at CYP3A4, the “CYP3A4 (MDZ) MBI (shifted IC)” value is given as “Negative (When a shifted IC is 1.0 or less, this is defined as negative)”.

For the compound `Cc1nc(CN(Cc2ccc(CCC(F)(F)F)cc2)C2=NOC3(CCN(C)CC3)N2)co1` [Compound I-125], in data set [1], 20 µM corresponded to half-maximal inhibition (IC50). The “CYP3A4 (MDZ) MBI (shifted IC)” value at CYP3A4 was “Negative (When a shifted IC is 1.0 or less, this is defined as negative)”.

Source of the values: US20250026765A1, “SPIROHETEROCYCLE DERIVATIVE HAVING SEROTONIN RECEPTOR BINDING ACTIVITY” (Shionogi & Co., Ltd., priority 2021, published 2025).
